Measured values taken from patent US20120214802A1, “PYRROLIDINE COMPOUNDS WHICH INHIBIT BETA-SECRETASE ACTIVITY AND METHODS OF USE THEREOF” (priority 2009, published 2012).

Columns and labels:
[1] = target: T1, memapsin 2 (Cricetulus griseus, UniProt G3IAK4); experiment: Cellular Aβ IC50 determination (Aβ40 sandwich ELISA); assay type: cell-based, Chinese hamster; settings: CHO cells over-expressing human APP695 with London and Swedish mutations, 24 h, read-out: M2 IC50
T1 construct: endogenous in cells; host or cells: Chinese hamster ovary cells over-expressing human APP695 (London + Swedish)
Method: The potency of compounds against memapsin 2 activity was determined in a cellular assay of Aβ production. […] Chinese hamster ovary cells that over-express human APP695 with the London and Swedish mutations were seeded in multi-well plates at 10% confluency. Compounds are dissolved in DMSO to concentrations near 1 mM, and diluted into culture media to a final concentration near 4 μM (final 0.4% DMSO). Compounds were diluted serially and applied to cells in multi-well plates 48 h after seeding. Incubation was continued in 5% CO2 at 37° C. for 24 h. Aliquots were removed and assayed for […] using a sandwich ELISA (BioSource International). Amount of Aβ40 over the range of concentration of compounds, relative to control incubations, were fit to a 4-parameter IC50 model.

[2] = target: memapsin 2 (Homo sapiens, UniProt P56817); experiment: Inhibition of memapsin 2 beta-secretase activity (fluorogenic substrate FS-2); assay type: biochemical; settings: pH 4, 37° C., read-out: M2 Ki
Method: Potency of compounds were determined by measurement of their inhibition of memapsin 2 activity toward a fluorescent substrate. Kinetic inhibition experiments were performed using the procedure as described in Ermolieff, et al. (Biochemistry 39:12450-12456 (2000), the teachings of which are incorporated hereby in their entirety). Briefly, assays were performed at pH 4, 37° C., by pre-incubation of memapsin 2 enzyme with compound for 20 minutes. Activity measurements were initiated by addition of a fluorogenic substrate FS-2 (Bachem Americas, Torrance, Calif.) MCA-SEVNLDAEFR-DNP (SEQ ID NO.: 2). The substrate was derived from 10 amino acids of the human amyloid precursor protein (APP), with the Swedish variant amino acids at the beta-secretase cleavage site. The terminal amino acid was modified from arginine to lysine to facilitate derivatization with a functional group for detection by autofluorescence. The amino acid sequence of the “core” peptide of the substrate is SEVNLDAEFK (SEQ ID NO.: 3). The amino terminus was derivatized with (7-methoxycoumarin-4-yl)acetyl (MCA), and the epsilon amine of the lysine side chain of the terminal residue (K in sequence SEVNLDAEFK (SEQ ID NO.: 3)) was derivatized with 2,4-dinitorphenyl (DNP).

memapsin 2 (Homo sapiens, UniProt P56817), sequence (P56817 46-501): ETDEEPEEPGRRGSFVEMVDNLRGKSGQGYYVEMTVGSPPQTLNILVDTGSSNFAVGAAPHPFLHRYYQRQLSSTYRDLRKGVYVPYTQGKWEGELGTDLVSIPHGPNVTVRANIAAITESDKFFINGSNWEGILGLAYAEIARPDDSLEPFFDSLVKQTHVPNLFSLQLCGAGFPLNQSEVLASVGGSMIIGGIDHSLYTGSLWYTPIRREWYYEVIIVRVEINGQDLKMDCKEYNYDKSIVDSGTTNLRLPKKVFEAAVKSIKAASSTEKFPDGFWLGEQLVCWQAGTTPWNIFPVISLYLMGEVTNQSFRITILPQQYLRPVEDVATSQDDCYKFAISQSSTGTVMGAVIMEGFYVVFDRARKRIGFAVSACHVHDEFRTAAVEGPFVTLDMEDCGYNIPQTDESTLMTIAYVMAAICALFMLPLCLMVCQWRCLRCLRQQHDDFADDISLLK
T1 sequence (G3IAK4 22-501): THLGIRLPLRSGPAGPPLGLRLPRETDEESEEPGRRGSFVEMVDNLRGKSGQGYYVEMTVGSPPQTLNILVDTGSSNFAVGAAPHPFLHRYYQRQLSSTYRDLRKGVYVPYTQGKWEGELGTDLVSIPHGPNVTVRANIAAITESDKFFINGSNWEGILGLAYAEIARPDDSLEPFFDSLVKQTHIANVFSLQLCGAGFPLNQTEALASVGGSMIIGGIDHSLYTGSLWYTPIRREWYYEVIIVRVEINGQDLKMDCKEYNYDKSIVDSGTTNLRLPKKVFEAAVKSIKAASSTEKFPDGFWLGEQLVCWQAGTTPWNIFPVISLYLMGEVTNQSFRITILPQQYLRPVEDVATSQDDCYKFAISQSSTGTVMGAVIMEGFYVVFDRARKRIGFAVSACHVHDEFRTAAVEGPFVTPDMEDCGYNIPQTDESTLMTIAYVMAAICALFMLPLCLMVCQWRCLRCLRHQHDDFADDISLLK

Row | SMILES | IC50 [1] | Ki [2]
1 | Cc1csc(CN(C)C(=O)c2cccc(C(=O)N[C@@H](Cc3ccccc3)[C@H](O)[C@H]3CCCN3C(=O)OC(C)(C)C)c2)n1 [1-1, (R)-tert-butyl 2-((1S,2S)-1-hydroxy-2-(3-(methyl((4-methylthiazol-2-yl)methyl)carbamoyl)benzamido)-3-phenylpropyl)pyrrolidine-1-carboxylate] | > 1 µM | > 0.75 µM
2 | Cc1csc(CN(C)C(=O)c2cccc(C(=O)N[C@@H](Cc3ccccc3)[C@H](O)[C@H]3CCCN3)c2)n1 [1-2, N1-((1R,2S)-1-hydroxy-3-phenyl-1-((R)-pyrrolidin-2-yl)propan-2-yl)-N3-methyl-N3-((4-methylthiazol-2-yl)methyl)isophthalamide] | > 1 µM | 0.25 to 0.75 µM
3 | Cc1coc([C@H]2CCCN2C(=O)c2cccc(C(=O)N[C@@H](Cc3ccccc3)[C@H](O)[C@H]3CCCN3)c2)n1 [1-4, N-((1R,2S)-1-hydroxy-3-phenyl-1-((R)-pyrrolidin-2-yl)propan-2-yl)-3-((R)-2-(4-methyloxazol-2-yl)pyrrolidine-1-carbonyl)benzamide] | > 1 µM | 0.25 to 0.75 µM
4 | C[C@@H](NC(=O)c1cc(C(=O)N[C@@H](Cc2ccccc2)[C@H](O)[C@H]2CCCN2C(=O)OC(C)(C)C)cc(N(C)S(C)(=O)=O)c1)c1ccccc1 [1-5, (R)-tert-butyl 2-((1S,2S)-1-hydroxy-2-(3-(N-methylmethylsulfonamido)-5-((R)-1-phenylethylcarbamoyl)benzamido)-3-phenylpropyl)pyrrolidine-1-carboxylate] | > 1 µM | > 0.75 µM
5 | Cc1cc(C(=O)N[C@@H](Cc2ccccc2)[C@H](O)[C@H]2CCCN2C(=O)OC(C)(C)C)cc(C(=O)N2CCC[C@@H]2c2nc(C)co2)c1 [1-6, (R)-tert-butyl 2-((1S,2S)-1-hydroxy-2-(3-methyl-5-((R)-2-(4-methyloxazol-2-yl)pyrrolidine-1-carbonyl)benzamido)-3-phenylpropyl)pyrrolidine-1-carboxylate] | > 1 µM | > 0.75 µM
6 | Cc1csc(CN(C)C(=O)c2cc(C(=O)N[C@@H](Cc3ccccc3)[C@H](O)[C@H]3CCCN3C(=O)OC(C)(C)C)cc(-c3ncco3)c2)n1 [1-7, (R)-tert-butyl 2-((1S,2S)-1-hydroxy-2-(3-(methyl((4-methylthiazol-2-yl)methyl)carbamoyl)-5-(oxazol-2-yl)benzamido)-3-phenylpropyl)pyrrolidine-1-carboxylate] | > 1 µM | > 0.75 µM
7 | Cc1csc(CN(C)C(=O)c2cccc(C(=O)N[C@@H](Cc3ccccc3)[C@H](O)[C@H]3C[C@@H](O)CN3)c2)n1 [1-10, N1-((1R,2S)-1-hydroxy-1-((2R,4R)-4-hydroxypyrrolidin-2-yl)-3-phenylpropan-2-yl)-N3-methyl-N3-((4-methylthiazol-2-yl)methyl)isophthalamide] | > 1 µM | 0.25 to 0.75 µM
8 | Cc1coc([C@H]2CCCN2C(=O)c2cc(C(=O)N[C@@H](Cc3ccccc3)[C@H](O)[C@H]3CCCN3)cc(-c3cnccn3)c2)n1 [1-21, N-((1R,2S)-1-hydroxy-3-phenyl-1-((R)-pyrrolidin-2-yl)propan-2-yl)-3-((R)-2-(4-methyloxazol-2-yl)pyrrolidine-1-carbonyl)-5-(pyrazin-2-yl)benzamide] | < 0.5 µM | < 0.25 µM
9 | Cc1coc([C@H]2CCCN2C(=O)c2cc(C(=O)N[C@@H](Cc3ccccc3)[C@H](O)[C@H]3CCCN3)cc(-c3ccccn3)c2)n1 [1-24, N-((1R,2S)-1-hydroxy-3-phenyl-1-((R)-pyrrolidin-2-yl)propan-2-yl)-3-((R)-2-(4-methyloxazol-2-yl)pyrrolidine-1-carbonyl)-5-(pyridin-2-yl)benzamide] | < 0.5 µM | < 0.25 µM
10 | Cc1csc(CN(C)C(=O)c2cc(C(=O)N[C@@H](Cc3ccccc3)[C@H](O)[C@H]3CCCN3)cc(N(C)S(C)(=O)=O)c2)n1 [1-27, N1-((1R,2S)-1-hydroxy-3-phenyl-1-((R)-pyrrolidin-2-yl)propan-2-yl)-N3-methyl-5-(N-methylmethylsulfonamido)-N3-((4-methylthiazol-2-yl)methyl)isophthalamide] | < 0.5 µM | 0.25 to 0.75 µM
11 | Cc1csc([C@H]2CCCN2C(=O)c2cc(C(=O)N[C@@H](Cc3ccccc3)[C@H](O)[C@H]3CCCN3)cc(N(C)C)c2)n1 [1-42, 3-(dimethylamino)-N-((1R,2S)-1-hydroxy-3-phenyl-1-((R)-pyrrolidin-2-yl)propan-2-yl)-5-((R)-2-(4-methylthiazol-2-yl)pyrrolidine-1-carbonyl)benzamide] | > 1 µM | 0.25 to 0.75 µM
12 | Cc1csc([C@H]2CCCN2C(=O)c2cc(CF)cc(C(=O)N[C@H](Cc3ccccc3)[C@H](O)[C@H]3C[C@@H](OCc4ccccc4)CN3)c2)n1 [1-45, N-((1R,2R)-1-((2R,4R)-4-(benzyloxy)pyrrolidin-2-yl)-1-hydroxy-3-phenylpropan-2-yl)-3-(fluoromethyl)-5-((R)-2-(4-methylthiazol-2-yl)pyrrolidine-1-carbonyl)benzamide] | > 1 µM | > 0.75 µM
13 | Cc1csc([C@H]2CCCN2C(=O)c2cc(C(=O)N[C@@H](Cc3ccccc3)[C@H](O)[C@H]3CCCN3)cc(N3CCC(F)(F)CC3)c2)n1 [1-46, 3-(4,4-difluoropiperidin-1-yl)-N-((1R,2S)-1-hydroxy-3-phenyl-1-((R)-pyrrolidin-2-yl)propan-2-yl)-5-((R)-2-(4-methylthiazol-2-yl)pyrrolidine-1-carbonyl)benzamide] | 0.5 to 1 µM | 0.25 to 0.75 µM
14 | Cc1csc([C@H]2CCCN2C(=O)c2cccc(C(=O)N[C@@H](Cc3ccccc3)[C@H](O)[C@H]3C[C@H](F)CN3)c2)n1 [1-47, N-((1R,2S)-1-((2R,4S)-4-fluoropyrrolidin-2-yl)-1-hydroxy-3-phenylpropan-2-yl)-3-((R)-2-(4-methylthiazol-2-yl)pyrrolidine-1-carbonyl)benzamide] | > 1 µM | 0.25 to 0.75 µM
15 | Cc1csc([C@H]2CCCN2C(=O)c2cccc(C(=O)N[C@@H](Cc3ccccc3)[C@H](O)[C@@H]3CCCN3)c2)n1 [1-48, N-((1R,2S)-1-hydroxy-3-phenyl-1-((S)-pyrrolidin-2-yl)propan-2-yl)-3-((R)-2-(4-methylthiazol-2-yl)pyrrolidine-1-carbonyl)benzamide] | > 1 µM | > 0.75 µM
16 | Cc1csc([C@H]2CCCN2C(=O)c2cc(C(=O)N[C@@H](Cc3ccccc3)[C@H](O)[C@H]3CCCN3)cc(C3CC3)c2)n1 [1-50, 3-cyclopropyl-N-((1R,2S)-1-hydroxy-3-phenyl-1-((R)-pyrrolidin-2-yl)propan-2-yl)-5-((R)-2-(4-methylthiazol-2-yl)pyrrolidine-1-carbonyl)benzamide] | > 1 µM | < 0.25 µM
17 | Cc1csc([C@H]2CCCN2C(=O)c2cccc(C(=O)N[C@@H](Cc3ccccc3)[C@H](O)[C@H]3CC[C@@H](C)N3)c2)n1 [1-51, N-((1R,2S)-1-hydroxy-1-((2R,5R)-5-methylpyrrolidin-2-yl)-3-phenylpropan-2-yl)-3-((R)-2-(4-methylthiazol-2-yl)pyrrolidine-1-carbonyl)benzamide] | > 1 µM | > 0.75 µM
18 | Cc1csc([C@H]2CCCN2C(=O)c2cccc(C(=O)N[C@@H](Cc3cccc(F)c3)[C@H](O)[C@H]3CCCN3)c2)n1 [1-53, N-((1R,2S)-3-(3-fluorophenyl)-1-hydroxy-1-((R)-pyrrolidin-2-yl)propan-2-yl)-3-((R)-2-(4-methylthiazol-2-yl)pyrrolidine-1-carbonyl)benzamide] | 0.5 to 1 µM | < 0.25 µM
19 | CCCN(CCC)C(=O)c1cccc(C(=O)N[C@@H](Cc2ccccc2)[C@H](O)[C@H]2CCCN2)c1 [2-12, N1-((1R,2S)-1-hydroxy-3-phenyl-1-((R)-pyrrolidin-2-yl)propan-2-yl)-N3,N3-dipropylisophthalamide, reference compound] | – | > 0.75 µM
20 | O=C(N[C@@H](Cc1ccccc1)[C@H](O)[C@H]1CCCN1)c1cccc(CN2CCCC2=O)c1 [2-13, N-((1R,2S)-1-hydroxy-3-phenyl-1-((R)-pyrrolidin-2-yl)propan-2-yl)-3-((2-oxopyrrolidin-1-yl)methyl)benzamide, reference compound] | – | > 0.75 µM
